Assay results from publication PMC6001824, “Expressional and functional interactions of two Apis cerana cerana olfactory receptors” (PeerJ, 2018).
Like-named read-outs stand apart in the source and are kept apart here.

Tests used:
[1] = biological target: AcerOr1 (Apis cerana cerana, UniProt G8HAQ8); assay type: cell-based; conditions: for HillSlope: Sf9 cells expressing AcerOr1, 4-parameter logistic fit; for EC50: Sf9 cells expressing AcerOr1, Ca2+ imaging; for Emax: Sf9 cells expressing AcerOr1, concentration-response, 4-parameter logistic fit; for response of AcerOr1-expressing cells (increase in intracellular Ca2+): odorant at 10^−6 M
Sequence of AcerOr1 (G8HAQ8 entry or part of it): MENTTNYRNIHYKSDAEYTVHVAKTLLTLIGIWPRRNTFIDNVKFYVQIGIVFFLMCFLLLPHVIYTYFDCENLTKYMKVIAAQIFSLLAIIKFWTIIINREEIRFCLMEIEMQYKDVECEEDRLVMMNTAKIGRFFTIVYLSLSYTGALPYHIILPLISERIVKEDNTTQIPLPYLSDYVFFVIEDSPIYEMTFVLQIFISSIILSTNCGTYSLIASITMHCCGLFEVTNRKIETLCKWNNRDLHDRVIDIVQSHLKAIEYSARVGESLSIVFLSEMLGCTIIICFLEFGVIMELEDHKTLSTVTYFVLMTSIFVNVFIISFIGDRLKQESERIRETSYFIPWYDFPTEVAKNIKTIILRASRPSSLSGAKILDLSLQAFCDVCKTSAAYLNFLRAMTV
Protocol: (§1) Spodoptera frugiperda Sf9 cells were purchased from the Chinese Academy of Sciences Cell Bank (Beyotime, Shanghai, China) were maintained as an adherent culture in Sf-900 III serum-free medium (SFM; Gibco, Invitrogen, Carlsbad, CA, USA) supplemented with 10% fetal bovine serum (Sijiqing, Hangzhou, China) and 100 μg mL^−1 penicillin-streptomycin at a constant temperature of 28 °C in a humidified incubator (Thermo Scientific, Cornelius, OR, USA) in the absence of CO2 in T-25 tissue culture flasks (Corning Inc., Corning, NY, USA). Sf9 cells were grown to approximately 80–90% confluence as observed under a light microscope. Cells were dislodged from the flask by washing with the media contained in the flask. In total, 1 × 10^6 Sf9 cells were suspended in 2 mL of Sf-900 III SFM in each well of a Nunclone six-well tissue culture plate (Corning Inc., Corning, NY, USA). Confluent cells (80–90%) were transiently transfected with 2.0 μg pIB-AcerOr1/pIB-AcerOr2 using 8 μL of Cellfectin II reagent (Invitrogen, Carlsbad, CA, USA) in six-well plates according to the manufacturer’s instructions. The medium containing plasmid DNA and Cellfectin II was removed after incubation of the cells with a DNA/Cellfectin II mix for 3–5 h. The cells were washed twice with fresh Sf-900 III SFM and overlaid with 2 mL of fresh SFM. […] After incubation for 48 h, assays were performed.
(§2) To identify candidate ligands for selected ORs, we tested 32 compounds (most of which were volatile compounds from host plants, including aldehydes, alcohols, monoterpenes, benzoates, and sesquiterpenes) at a final concentration of 10^−6 M by Ca^2+ imaging in an in vitro cell expression system. […] After the cells were transfected for 48 h, the medium was removed and the cells were washed three times with Hank’s balanced salt solution (without Ca^2+). The cells were subsequently cultured at 37 °C in the dark for 30 min in the presence of 2 μmol L^−1 Fluo-4-AM (Beyotime, Shanghai, China) and were stimulated by the chemical odorants. Each test chemical ligand was applied to Fluo-4-loaded Sf9 cells expressing AcerOr1 at a final concentration of 10^−6 M, and the increase in fluorescence caused by the substrate was measured and expressed as a fraction of the fluorescence elicited by the calcium ionophore ionomycin. The Ca^2+-free solution used was Dulbecco’s phosphate buffered saline supplemented with 0.4 mM ethylene glycol tetra-acetic acid (EGTA).
(§3) EC50 values were determined using GraphPad Prism 6.0 (GraphPad; San Diego, CA, USA). The formula used for calculating the concentration-response using a 4-parameter logistic model was as follows: Y=Bottom+(Top−Bottom)/1+10^(LogEC50−X)^*HillSlope where Y and X are the response showing a sigmoid shape and the logarithm of the concentration.

[2] = biological target: T1, AcerOr2 (Apis cerana cerana, UniProt G9J1I3); assay type: cell-based; conditions: for EC50: Sf9 cells expressing AcerOr2, Ca2+ imaging
T1 sequence (G9J1I3 entry or part of it): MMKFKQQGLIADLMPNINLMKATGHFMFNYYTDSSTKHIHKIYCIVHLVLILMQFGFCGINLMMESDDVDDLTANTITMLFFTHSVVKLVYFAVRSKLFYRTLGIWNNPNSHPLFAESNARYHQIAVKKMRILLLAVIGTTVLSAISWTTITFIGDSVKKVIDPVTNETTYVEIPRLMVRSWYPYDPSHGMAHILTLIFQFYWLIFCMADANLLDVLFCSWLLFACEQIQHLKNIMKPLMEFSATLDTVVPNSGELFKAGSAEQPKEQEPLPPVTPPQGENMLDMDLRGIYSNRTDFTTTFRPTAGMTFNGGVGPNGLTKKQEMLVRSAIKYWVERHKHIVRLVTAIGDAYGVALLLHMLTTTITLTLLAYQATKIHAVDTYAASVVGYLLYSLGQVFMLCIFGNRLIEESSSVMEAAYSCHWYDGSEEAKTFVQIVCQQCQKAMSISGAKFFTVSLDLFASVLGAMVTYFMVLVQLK
Protocol: as §1, §2, §3

[3] = tested on: antennae of Apis cerana cerana; test: Electroantennography (EAG) of isolated antennae; conditions: 500 μg μL^−1 of compound in liquid paraffin, relative to blank
Protocol: The level of OR expression in antenna olfactory neurons can be indirectly measured by recording the EAG responses of the isolated antennae to the corresponding odorant ligand. We compared data previously obtained by Ca^2+ imaging in vitro to determine whether these odorants can cause electrophysiological responses in the antennae with physiological activity. […] The compounds were dissolved and diluted in liquid paraffin to final concentrations of 0.1, 1, 10, 100, and 500 μg μL^−1. Pure liquid paraffin wax was used as a blank, and results were calculated relative to the blank. The antennae were carefully cut at the base and placed into EAG electrode probes (Syntech, Hilversum, The Netherlands) with a drop of Spectra 360 electrode gel (Parker Lab, Inc., Fairfield, NJ, USA). Filter paper strips (5 × 50 mm) were loaded with 20 μL of the different test solutions and inserted into glass Pasteur pipettes and served as sources of stimuli. Humidified airflow was delivered at a constant rate of 700 mL min^−1 by an air stimulus controller CS-55 (Syntech, Kirchzarten, Germany). Odor stimuli were administered three times at 2 mL s^−1 for 0.5 s at 30 s intervals. EAG recordings of antennal responses to each stimulus were documented as voltage waveforms using an IDAC-4 computer-operated amplifier controller (Syntech, Kirchzarten, Germany), and the data were analyzed with the EAGPro software (Syntech, Kirchzarten,Germany). A newly prepared antenna was used for each recording. A dose-response curve was plotted using the EAG recordings (in mV) for each concentration.

[4] = tested on: endogenous Orco in Sf9 cells; test: Ca2+ imaging of control Sf9 cells transfected with pIB/V5 empty vector; assay type: cell-based, Spodoptera frugiperda; conditions: odorant at 10^−6 M
[5] = biological target: T1, AcerOr2; assay type: cell-based; conditions: odorant at 10^−6 M

HillSlope ([2]; Sf9 cells expressing AcerOr2, 4-parameter logistic fit)	Emax ([2]; Sf9 cells expressing AcerOr2, concentration-response, 4-parameter logistic fit)	response of cells expressing AcerOr2 alone (increase in intracellular Ca2+) [5]	Compound	HillSlope [1]	EC50 [1]	Emax [1]	response of AcerOr1-expressing cells (increase in intracellular Ca2+) [1]	EC50 ([2]; read-out: EC50)	EC50 [2]	EAG response [3]	EC50 ([1]; read-out: EC50)	response of control cells (pIB/V5 empty vector, endogenous Orco only) [4]
			CCCCCCCCCO [1-Nonanol]	0.80 ± 0.06	10^−7 to 10^−8 M	69.86 ± 0.44	elicited responses	> 10 µM				
			CCCCCCCCO [1-Octyl alcohol]	0.63 ± 0.04	10^−7 to 10^−8 M	106.77 ± 2.01	elicited responses	> 10 µM				
			C=CCc1ccc(O)c(OC)c1 [Eugenol]	0.74 ± 0.06	10^−7 to 10^−8 M	88.53 ± 0.52	elicited responses		> 10 µM	9.92 ± 0.58 mV		
			CCCCCCOC(C)=O [Hexyl acetate]	0.73 ± 0.05	10^−7 to 10^−8 M	115.94 ± 1.5	elicited responses	> 10 µM				
			CCCCCCCCCCCC(=O)O [Lauric acid]	0.49 ± 0.06	10^−7 to 10^−8 M	138.79 ± 0.5	elicited responses	> 10 µM			0.0481 µM	
			CC/C=C\C/C=C\C/C=C\CCCCCCCC(=O)O [Linolenic acid]	0.87 ± 0.03	10^−7 to 10^−8 M	85.74 ± 0.83	elicited responses		> 10 µM	10 ± 0.54 mV		
			CC(C)=CCC/C(C)=C\CO [Nerol]	0.52 ± 0.06	10^−7 to 10^−8 M	184.92 ± 0.55	elicited responses		> 10 µM			
			C=CC(C)=CCC=C(C)C [Ocimene]	0.50 ± 0.09	10^−7 to 10^−8 M	144.27 ± 0.59	elicited responses	> 10 µM			0.0532 µM	
			CCCCCCCCCCC(=O)O [Undecanoic acid]	0.73 ± 0.05	10^−7 to 10^−8 M	116.69 ± 1.15	elicited responses	> 10 µM				
0.56 ± 0.08	241.67 ± 0.74	greatest increase in intracellular Ca^2+	CCc1ccc(NC(=O)CSc2nnc(-c3cccnc3)n2CC)cc1 [VUAA1, N-(4-ethylphenyl)-2-((4-ethyl-5-(3-pyridinyl)-4H-1,2,4-triazol-3-yl)thio) acetamide]	1.72 ± 1.48		4.64 ± 0.10	sensitive	0.0662 µM		18.71 ± 1.45 mV		unable to respond
